# Experimental data as given in patent US8912139B2, “Peptide compositions and methods for treating lung injury, asthma, anaphylaxis, angioedema, systemic vascular permeability syndromes, and nasal congestion” (The Board of Trustees of the University of Illinois, priority 2011, dated 2014).
# “Also recorded” adds a separate entry of the source. Ends that are not written are not given here. Peptide text beside a SMILES is read from it. * marks the point of attachment. Myristoyl = CCCCCCCCCCCCCC(=O)*
# What was measured:
# LPS-induced sepsis = assay: Survival in LPS-induced murine model of sepsis; format: in vivo, mice; details: for survival rate, LPS LD90, pre-treatment with Myr-EBIN: Myr-EBIN 1 microM/kg i.v. 30 min prior, 1 hr and 24 hrs after LPS
# Procedure: (n=11-15 mice/group, p<0.001 AP-IP3R3 vs control treatment (AP control) by ANOVA. Mice were anesthetized prior to retro-orbital i.v. injection of IP3R3 with a mixture of ketamine, 10 mg/ml; xylazine, 0.25 mg/ml and acepromazine, 0.25 mg/ml.
# CD-1 mice treated with indicated doses of IP3R3 peptide were i.p. injected with LPS at LD80 dose (50 mg/kg LPS) and were monitored for 5 days. Survival rate (%) was plotted vs. peptide dose in logarithm scale. The sigmoidal dose-response curve was fitted to the data points. n=10 mice/group. Mice were anesthetized prior to retro-orbital injection of peptide with 2.5% isoflurane in room air in an anesthesia induction chamber. Anesthesia was maintained during i.v. injection using a specially designed rodent facemask with a coaxial tube (Harvard Apparatus, AH 72-3026).
# Male CD1 mice were challenged by intraperitoneal (i.p.) injection of LD90 doses of LPS. The experimental and control groups received retro-orbital, intravenous (i.v.) injection of EBIN attached to the C-terminus of cell permeant antennapedia peptide (AP) or AP alone at a concentration of 1 microM/kg. Mice were injected tree times, 30 minutes prior to and 1 hr and 24 hrs after LPS administration. Mice were anesthetized prior to retro-orbital injection with a mixture of ketamine (10 mg/ml), xylazine (0.25 mg/ml), and acepromazine (0.25 mg/ml).
# FIG. 19 compares the effect of pre- and post treatment with EBIN (SEQ ID NO: 3) on lethality from LPS-induced sepsis. […] Male CD1 mice were challenged by intraperitoneal (i.p.) injection of LD90 doses of LPS. The experimental and control groups received tail vein (i.v.) injection of Myr-EBIN 30 min prior (pre-treatment) or 30 min after (post-treatment) LPS or Myr-control loss-of-binding peptide at a concentration of 1 microM/kg. Pre-treatment group, mice were injected tree times, 30 minutes prior to and 1 hr and 24 hrs after LPS administration; treatment group, mice were injected two times, 30 minutes and 24 hrs after LPS administration. Mice were anesthetized prior to retro-orbital injection with a mixture of ketamine (10 mg/ml), xylazine (0.25 mg/ml), and acepromazine (0.25 mg/ml).
# The pharmacological effect of IP3R3 peptide was tested in LPS-induced murine model of sepsis. Male CD1 mice were challenged by intraperitoneal injection (i.p.) of LPS (30 mg/kg body weight) and infiltration of neutrophils in lung, a measure of lung inflammation was determined. Lungs were perfused with PBS, weighed, frozen and used for measuring lung myeloperoxidase (MPO) activity, signature of activated neutrophils. […] Furthermore, it was determined whether IP3R3 peptide protects from polymicrobial sepsis induced by cecal ligation and puncture (CLP). CLP causes lethal peritonitis that is accompanied by acute lung injury (ALI). It is well-excepted and clinically relevant method in experimental rodents.
# The dose-response of IP3R3 peptide was further tested in LPS-induced murine model of sepsis. Male CD1 mice were challenged by i.p. injection of LPS at LD80 dose. Mice received a retro-orbital i.v. injection of IP3R3 peptide at doses 0.01, 0.033, 0.1, 0.33, 1.0, 3.3 and 10 μM per kg of the body weight. Mice were injected with IP3R3 peptide three times, 30 minutes prior to, and 1 and 24 hrs after LPS administration. A percent of survived animals in each group was plotted as a function of IP3R3 dose. […] The ED50 (effective dose, 50%) as 80 nM/kg was calculated using a three-parameter logistic equation: y=min+([…])/1+10^LogED50-x Where min and max are minimum and maximum of response.
# The effect of EBIN on mortality rate from LPS-induced sepsis was determined. Mice received i.v. retro-orbital injection of AP-EBIN or AP control peptide, 30 minutes prior to and 1 hr after LPS administration at LD90 dose. […] In this experiment, Myr-EBIN was injected in tail vein 30 min and 24 hrs after LPS challenged. […] It is concluded that administration of EBIN prior to systemic inflammation has much higher beneficial outcome.
# IP3R = details: background statement, MT destabilizing or stabilizing agents; cited from earlier work
# HMVECs = assay: Thrombin-induced Ca2+ release from stores in HMVECs (Fura 2-AM 340/380 ratio); format: cell-based; details: 5 μg/ml taxol for 20 min prior to thrombin stimulation
# Procedure: A. HMVECs pre-treated with AP-attached IP3R3 peptide or control (AP) peptide were loaded with Fura 2-AM and 340/380 ratio was calculated after stimulation of cells with thrombin (50 nM) in the absence and in the presence of extracellular Ca^2+. Arrow, time of thrombin addition. […] The increase is normalized to control non-treated cells from the same experiment (n=4).
# The effects of IP3R peptide and taxol were compared in regulating Ca^2+ release.
# lung injury = details: background statement; cited from earlier work
# EB3/IP3R3 interaction = target: T1, EB3/IP3R3 interaction (Homo sapiens, UniProt Q9UPY8); assay: EB3-IP3R3 interaction by immunoprecipitation/Western blot in HPAECs challenged with thrombin; format: cell-based; details: HPAECs pretreated with 1 μM AP-EBIN; 50 nM thrombin
# T1 construct: HPAECs pretreated with 1 μM AP-EBIN or control peptide (AP) were challenged with 50 nM thrombin; endogenous in cells; host or cells: HPAEC (human pulmonary aorta endothelial cells)
# Procedure: HPAECs pretreated with 1 μM AP-EBIN or control peptide (AP) were challenged with 50 nM thrombin. The interaction between EB3 and IP3R3 was analyzed at different time-points after thrombin stimulation. EB3 was immune-precipitated with specific Abs and resulted precipitates were probed for EB3 and IP3R3.
# (§1) To determine the inhibitory properties of EBIN in cells, Human Pulmonary Aorta Endothelial Cell (HPAECs) monolayers pretreated with EBIN or with a control peptide at the concentration of 1 μM were challenged with thrombin. The interaction between EB3 and IP3R3 receptor was analyzed using a Western Blot analysis. […] EBIN but not a control peptide mitigated agonist-induced increase in intracellular calcium. [Ca2-F]i transient after stimulation of HPAEC monolayers with pro-inflammatory cytokines.
# HPAECs [1] = assay: Agonist-induced intracellular calcium transient in HPAEC monolayers (Fura-2 340/380); format: cell-based, Human; details: 1 μM Myr-peptide, 50 nM thrombin or 90 μM histamine
# Procedure: [Ca2+]i transient after stimulation of HPAEC monolayers with 50 nM thrombin (A) or 90 μM histamine (B). Mean value; n=20 cells. Arrow, time of stimulation.
# as §1
# HPAECs [2] = assay: NO production in HPAECs (porphyrinic NO electrodes); format: cell-based, Human; details: first 20 min
# Procedure: HPAECs were pretreated with control peptide (loss-of-activity) or Myr-EBIN and basal (A, in response to addition of L-arginin) and agonist-induced (B, thrombin and histamine) NO production was measured for the first 20 min stimulation.
# (§2) The activity of nitric oxide synthase 3(eNOS), an endothelial-specific enzyme that produces NO, is regulated by calcium signaling, particularly, through eNOS interaction with calmodulin, and is a known cause of hyperpermeability of endothelial barrier during inflammation. Because EBIN inhibits calcium signaling it was postulated that the barrier-protective effect of EBIN, in part, is due to inhibition of eNOS. Therefore, the effect of EBIN on basal and agonist-induced production of NO was measured. NO formation was measured using porphyrinic NO electrodes coupled to a FAS1 femtostat and a personal computer with electrochemical software (Gamry Instruments). The electrode current, which is proportional to NO concentration, was measured as a function of time.
# [3] = tested on: histamine-induced vasodilation; assay: Awake blood pressure measurement in mice, histamine-induced vasodilation; format: in vivo; details: AP-EBIN 1 μM/kg i.v.
# Procedure: Awake Blood Pressure Measurement in Mice-Mice were anesthetized and surgically prepared for placement of arterial (carotid) and venous (external jugular) catheters. One hour after surgery the blood pressure was monitored directly using a pressure transducer. Subsequent intravenous (i.v.) injections of AP-EBIN peptide (1 μM/kg body weight; green) or control AP peptide (red) and histamine (10 mg/kg body weight) were performed through jugular vein catheter; the arrow indicates the time of injection.
# as §2
# [4] = tested on: IgE-mediated anaphylactic reaction; assay: Subcutaneous vascular leak (Evans Blue) following IgE-mediated anaphylactic reaction; format: in vivo; details: mice, intradermal IgE-HSA, HSA challenge 24 hr later; Myr-peptide 1 μM/kg i.v. 30 min prior to HSA
# Procedure: Mice received intradermal injection of IgE-HSA in the ear (A) and back (B) and 24 hr later, iv injection of Evans Blue and HSA (1-3) or saline (4-5). Groups 1 and 4 received saline, 2—control peptide (loss-of-binding) and 3 and 5—Myr-EBIN iv injection (1 μM/kg) 30 min prior to HSA. […] C. […] Evans Blue was extracted from ear tissue and Evans Blue concentration was measured at A=620 nm and normalized to the tissue weight. *, p<0.05, n=6 mice/group.
# Airway microvascular hyperpermeability, the result of elevated plasma VEGF, is one of the critical factors contributing to abnormal airway function in patients with classic asthma and its cough variant. Because acute allergic asthmatic response is mainly due to IgE-mediated hypersensitivity, we also determined whether EBIN protects from subcutaneous vascular leak following an IgE-mediated anaphylactic reaction. […] These date indicate that EBIN might be effectively used to improve the lung function and overall health of patients with chronic or acute forms of allergic asthma, and curtail the asthmatic inflammatory response.
# [5] = 50 mg/kg LPS, vs loss-of-binding peptide
# T1 sequence (Q9UPY8 whole entry): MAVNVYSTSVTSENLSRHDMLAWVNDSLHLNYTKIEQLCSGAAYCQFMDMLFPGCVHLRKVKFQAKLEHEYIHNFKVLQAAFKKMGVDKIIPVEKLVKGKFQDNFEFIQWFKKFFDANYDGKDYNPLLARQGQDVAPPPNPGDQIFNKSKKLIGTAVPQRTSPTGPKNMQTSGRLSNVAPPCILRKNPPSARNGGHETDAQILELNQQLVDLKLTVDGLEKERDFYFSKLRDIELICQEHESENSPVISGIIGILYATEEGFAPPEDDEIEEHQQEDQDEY
molecule,measurement,setting,value
"CC[C@H](C)[C@H](NC(=O)[C@H](C)NC(=O)[C@@H](NC(=O)[C@@H]1CCCN1C(=O)[C@@H](NC(=O)[C@H](CCC(=O)O)NC(=O)[C@@H](NC(=O)[C@H](Cc1c[nH]c2ccccc12)NC(=O)[C@H](CC(C)C)NC(=O)[C@H](CCCNC(=N)N)NC(=O)[C@H](C)NC(=O)[C@H](Cc1ccccc1)NC(=O)[C@@H](N)CCCCN)[C@@H](C)O)[C@@H](C)CC)[C@@H](C)O)C(=O)N[C@H](C(=O)O)[C@@H](C)O [IP3R3 peptide, KFARLWTEIPTAIT] (H-KFARLWTEIPTAIT-OH)","survival / mortality, LD50 LPS challenge","LPS-induced sepsis; 30 mg/kg LPS i.p., peptide i.v. 30 minutes prior to and 1 hr after LPS, vs AP control",marked improvement in survival rate; also recorded: mortality reduction
same,toxicity within the dose range,"LPS-induced sepsis; mice, 0.01 to 10 μM per kg i.v., three injections",low toxicity
COc1cc2c(c(OC)c1OC)-c1ccc(OC)c(=O)cc1[C@@H](NC(C)=O)CC2 [colchicine],IP3-gated release of Ca2+,IP3R,inhibits IP3-gated release of Ca2+
COC(=O)Nc1nc2ccc(C(=O)c3cccs3)cc2[nH]1 [nocodazole],IP3-gated release of Ca2+,IP3R,inhibits IP3-gated release of Ca2+
CC(=O)O[C@H]1C(=O)[C@@]2(C)[C@H]([C@H](OC(=O)c3ccccc3)[C@]3(O)C[C@H](OC(=O)[C@H](O)[C@@H](NC(=O)c4ccccc4)c4ccccc4)C(C)=C1C3(C)C)[C@]1(OC(C)=O)CO[C@@H]1C[C@@H]2O [taxol],release of Ca2+ from ER in response to thrombin,HMVECs,inhibits release of Ca^2+ from ER to the same extent as IP3R3 peptide
same,lung injury in mice models,lung injury,attenuate the lung injury
same,IP3-gated release of Ca2+,IP3R,inhibits IP3-gated release of Ca2+
FTEIPTI (EB binding peptide) [EBIN],"survival rate, LPS LD90, pre-treatment with Myr-EBIN",LPS-induced sepsis; [5],reduced mortality
same,"survival rate, LPS LD90, post-treatment with Myr-EBIN","LPS-induced sepsis; 50 mg/kg LPS, Myr-EBIN 1 microM/kg tail vein 30 min and 24 hrs after LPS, vs loss-of-binding peptide",insignificant improvement in survival rate; also recorded: some but not significant improvement of the survival
same,"survival / mortality, LPS LD90, AP-EBIN","LPS-induced sepsis; CD1 mice, 50 mg/kg LPS i.p., AP-EBIN 1 microM/kg retro-orbital i.v. starting 30 minutes prior to LPS, 120-hr, vs AP, 50 mg/kg",marked improvement in survival rate; also recorded: reduced mortality
same,"interaction between EB3 and IP3R3, basal and after thrombin",EB3/IP3R3 interaction,attenuated basal and thrombin-induced interaction between EB3 and IP3R3; also recorded: markedly reduced
same,agonist-induced increase in intracellular calcium ([Ca2+]i transient),HPAECs [1],significantly inhibited the intracellular calcium flux
same,basal NO production,HPAECs [2]; response to L-arginin,no effect; also recorded: did not affect basal NO level
same,agonist-induced NO production,HPAECs [2]; thrombin and histamine,significantly attenuated agonist-induced NO production
same,baseline (systolic) blood pressure,[3],no effect on baseline blood pressure
same,histamine-induced blood pressure drop / vasodilation,[3]; histamine 10 mg/kg i.v.,significantly inhibited histamine-induced vasodilation; also recorded: prevented blood pressure drop in response to histamine
same,subcutaneous vascular leak (Evans Blue) in ear and back,[4],significantly attenuates subcutaneous vascular leak; also recorded: significantly attenuated
Myr-EBIN: myristoylated EBIN (SEQ ID NO: 3) (Myristoyl-FTEIPTI),"survival rate, LPS LD90, pre-treatment with Myr-EBIN",LPS-induced sepsis; [5],significant increase
same,agonist-induced increase in intracellular calcium ([Ca2+]i transient),HPAECs [1],mitigates agonist-induced increase in intracellular calcium
